This is an account of results in PubChem BioAssay AID220 (DTP/NCI, 2004).

Where “and” joins values, the source holds several entries; their conditions need not be identical. Equal values may be shown once. Results filed as inconclusive are left out. Starred links: 1 amine or outer side, 2 acyl side, 3 side chain; linkers in the order of their positions; H or OH if unused. Positions of bridges follow the written chain, without caps; N, C: chain ends. Non-standard residues stand in square brackets, D forms with d. Residues, ends and D or L forms follow the SMILES beside them. Chains are numbered I, II in the order given. Actinocin(1to9) = Cc1c2oc3c(C)ccc(C(=O)[*:2])c3nc-2c(C(=O)[*:1])c(N)c1=O; NMeV = CN[CH](C(=O)O)C(C)C; Aze = O=C(O)[CH]1CCN1; Sar = CNCC(=O)O

The subject of the test is CD8F1 mice, subcutaneous mammary adenocarcinoma, T/C%. The experiment in a line: NCI In Vivo Anticancer Drug Screen. Data for tumor model Mammary Adenocarcinoma CD8F1 (subcutaneous) in CD8F1. To be noted: higher = larger tumour. An outline of the steps: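 Transplantable tumors were established in mice, animals were dosed with compound or vehicle, and survival or tumor size was then measured in both groups. The treated result was divided by the control result.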

Where [1] appears, read: endpoint: median tumor weight change, dose: 50.0 mg/kg/injection, schedule: Q01DX001 (ip), vehicle: saline with Tween-80.
Setting [2] is: endpoint: median tumor weight change, dose: 100.0 mg/kg/injection, schedule: Q01DX001 (ip), vehicle: saline with Tween-80.
Setting [3] is: endpoint: median tumor weight change, dose: 200.0 mg/kg/injection, schedule: Q01DX001 (ip), vehicle: saline with Tween-80.
[4] abbreviates: endpoint: median tumor weight (est.), dose: 12.5 mg/kg/injection, schedule: Q07DX005 (ip), vehicle: saline.
Where [5] appears, read: endpoint: median tumor weight (est.), dose: 25.0 mg/kg/injection, schedule: Q07DX004 (ip), vehicle: saline.
The mark [6] stands for this setting: endpoint: median tumor weight (est.), dose: 25.0 mg/kg/injection, schedule: Q07DX005 (ip), vehicle: saline.
Where [7] appears, read: endpoint: median tumor weight (est.), dose: 50.0 mg/kg/injection, schedule: Q07DX004 (ip), vehicle: saline.
Setting [8] is: endpoint: median tumor weight (est.), dose: 50.0 mg/kg/injection, schedule: Q07DX005 (ip), vehicle: saline.

For `C/C=C\C(C)=C/C(C)C(=O)CC(O)CC1CC(=O)NC(=O)C1` (centres undefined), the T/C is 66 % of control under setting [1]; 58 % of control (endpoint: median tumor weight change, dose: 56.0 mg/kg/injection, schedule: Q01DX001 (ip), vehicle: DMSO); 66 % of control under setting [2]; 60 % of control (endpoint: median tumor weight change, dose: 112.0 mg/kg/injection, schedule: Q01DX001 (ip), vehicle: DMSO); 73 % of control under setting [3]; 77 % of control (endpoint: median tumor weight change, dose: 225.0 mg/kg/injection, schedule: Q01DX001 (ip), vehicle: DMSO). In addition, where the note is “endpoint: median tumor weight change, dose: 400.0 mg/kg/injection, schedule: Q01DX001 (ip), vehicle: saline with Tween-80”, the T/C was 98 % of control.
As to `O=c1nc(Oc2ccccc2)nc2ncccn12`, the T/C is, setting by setting: (endpoint: median tumor weight (est.), dose: 6.25 mg/kg/injection, schedule: Q07DX005 (ip), vehicle: saline with Tween-80) 88 % of control; (endpoint: median tumor weight (est.), dose: 12.5 mg/kg/injection, schedule: Q07DX005 (ip), vehicle: saline with Tween-80) 110 % of control; (endpoint: median tumor weight (est.), dose: 25.0 mg/kg/injection, schedule: Q07DX005 (ip), vehicle: saline with Tween-80) 100 % of control; (endpoint: median tumor weight (est.), dose: 50.0 mg/kg/injection, schedule: Q07DX005 (ip), vehicle: saline with Tween-80) 91 % of control; (endpoint: median tumor weight (est.), dose: 100.0 mg/kg/injection, schedule: Q07DX005 (ip), vehicle: saline with Tween-80) 114 % of control.
In the case of `C=C1C(=O)C23[C@H](O)C1CC[C@H]2[C@]12COC3(O)[C@@H](O)[C@@H]1C(C)(C)CC[C@@H]2O`, the T/C was 104 % of control (endpoint: median tumor weight (est.), dose: 8.75 mg/kg/injection, schedule: Q07DX005 (ip), vehicle: Klucel (hydroxypropylcellulose) (HPC)); 65 % of control (endpoint: median tumor weight (est.), dose: 17.5 mg/kg/injection, schedule: Q07DX005 (ip), vehicle: Klucel (hydroxypropylcellulose) (HPC)); 54 % of control (endpoint: median tumor weight change, dose: 15.62 mg/kg/injection, schedule: Q01DX001 (ip), vehicle: saline with Tween-80); 61 % of control (endpoint: median tumor weight change, dose: 31.25 mg/kg/injection, schedule: Q01DX001 (ip), vehicle: saline with Tween-80).
On to `Cc1c2oc3c(C)ccc(C(=O)NC4C(=O)NC(C(C)C)C(=O)N5CCCC5C(=O)N(C)CC(=O)N(C)C(C(C)C)C(=O)OC4C)c3nc-2c(C(=O)NC2C(=O)NC(C(C)C)C(=O)N3CCC3C(=O)N(C)CC(=O)N(C)C(C(C)C)C(=O)OC2C)c(N)c1=O` (centres undefined) (I: TV[Aze][Sar][NMeV] / II: TVP[Sar][NMeV]; ester I:1-I:C, II:1-II:C; linker I:N-II:N via Actinocin(1to9); configuration not given here), for which the T/C by setting is: (endpoint: median tumor weight (est.), dose: 300.0 micrograms/kg/injection, schedule: Q07DX005 (ip), vehicle: saline + alcohol) 34 % of control and 44 % of control; (endpoint: median tumor weight (est.), dose: 600.0 micrograms/kg/injection, schedule: Q07DX005 (ip), vehicle: saline + alcohol) 2 % of control.
As for `[N-]=[N+]=CC(=O)CCC(N)C(=O)O` (centres undefined), the T/C was 22 % of control and 43 % of control (endpoint: median tumor weight (est.), dose: 3.12 mg/kg/injection, schedule: Q04DX005 (ip), vehicle: saline); 31 % of control and 56 % of control (endpoint: median tumor weight (est.), dose: 6.25 mg/kg/injection, schedule: Q04DX005 (ip), vehicle: saline); 30 % of control and 50 % of control (endpoint: median tumor weight (est.), dose: 12.5 mg/kg/injection, schedule: Q04DX005 (ip), vehicle: saline); 85 % of control and 105 % of control (endpoint: median tumor weight (est.), dose: 12.5 mg/kg/injection, schedule: Q07DX004 (ip), vehicle: saline); 23 % of control and 30 % of control under setting [4]; 35 % of control (endpoint: median tumor weight (est.), dose: 25.0 mg/kg/injection, schedule: Q01DX001 (ip), vehicle: saline). For the same molecule, the T/C under setting [5] was 23 % of control and 34 % of control; the T/C under setting [6] was 47 % of control; the T/C (endpoint: median tumor weight (est.), dose: 50.0 mg/kg/injection, schedule: Q01DX001 (ip), vehicle: saline) was 35 % of control; the T/C under setting [7] was 21 % of control and 31 % of control; the T/C under setting [8] is 16 % of control and 33 % of control; the T/C (endpoint: median tumor weight (est.), dose: 100.0 mg/kg/injection, schedule: Q01DX001 (ip), vehicle: saline) is 43 % of control. Also, where the note is “endpoint: median tumor weight (est.), dose: 100.0 mg/kg/injection, schedule: Q07DX005 (ip), vehicle: saline”, the T/C was 6 % of control.
Regarding `CC(C)(C)c1ccc(CN2CCN(C(c3ccccc3)c3ccc(Cl)cc3)CC2)cc1` (centres undefined), the T/C was 98 % of control (endpoint: median tumor weight change, dose: 8.0 mg/kg/injection, schedule: Q01DX001 (ip), vehicle: Klucel (hydroxypropylcellulose) (HPC)); 96 % of control (endpoint: median tumor weight change, dose: 16.0 mg/kg/injection, schedule: Q01DX001 (ip), vehicle: Klucel (hydroxypropylcellulose) (HPC)); 101 % of control (endpoint: median tumor weight change, dose: 32.0 mg/kg/injection, schedule: Q01DX001 (ip), vehicle: Klucel (hydroxypropylcellulose) (HPC)); 108 % of control (endpoint: median tumor weight change, dose: 64.0 mg/kg/injection, schedule: Q01DX001 (ip), vehicle: Klucel (hydroxypropylcellulose) (HPC)); 55 % of control (endpoint: median tumor weight change, dose: 128.0 mg/kg/injection, schedule: Q01DX001 (ip), vehicle: Klucel (hydroxypropylcellulose) (HPC)); 84 % of control (endpoint: median tumor weight change, dose: 256.0 mg/kg/injection, schedule: Q01DX001 (ip), vehicle: Klucel (hydroxypropylcellulose) (HPC)).
As to `COc1cc(C[C@H]2c3cc(OC)c(OC)cc3CCN2C)c(Oc2cc3c(cc2OC)-c2c(OC)c(OC)cc4c2[C@H](C3)N(C)CC4)cc1OC`, the T/C under setting [4] is 118 % of control; the T/C under setting [8] was 95 % of control; the T/C (endpoint: median tumor weight (est.), dose: 200.0 mg/kg/injection, schedule: Q07DX005 (ip), vehicle: saline) is 52 % of control; the T/C (endpoint: median tumor weight (est.), dose: 400.0 mg/kg/injection, schedule: Q07DX005 (ip), vehicle: saline) was 67 % of control.
For the molecule `O=[N+]([O-])c1ccc(Cl)c([N+](=O)[O-])c1`, the T/C is 78 % of control (endpoint: median tumor weight (est.), dose: 15.0 mg/kg/injection, schedule: Q07DX005 (ip), vehicle: saline with Tween-80); 61 % of control and 83 % of control (endpoint: median tumor weight (est.), dose: 120.0 mg/kg/injection, schedule: Q07DX005 (ip), vehicle: saline with Tween-80); 65 % of control (endpoint: median tumor weight (est.), dose: 240.0 mg/kg/injection, schedule: Q07DX005 (ip), vehicle: saline with Tween-80).
With `CN(C)/N=N/c1nc[nH]c1C(N)=O`, the T/C under setting [5] is 102 % of control; the T/C (endpoint: median tumor weight (est.), dose: 25.0 mg/kg/injection, schedule: Q07DX005 (ip), vehicle: Klucel (hydroxypropylcellulose) (HPC)) is 118 % of control; the T/C under setting [7] is 111 % of control; the T/C (endpoint: median tumor weight (est.), dose: 50.0 mg/kg/injection, schedule: Q07DX005 (ip), vehicle: Klucel (hydroxypropylcellulose) (HPC)) is 81 % of control; the T/C (endpoint: median tumor weight (est.), dose: 100.0 mg/kg/injection, schedule: Q07DX004 (ip), vehicle: saline) was 90 % of control; the T/C (endpoint: median tumor weight (est.), dose: 100.0 mg/kg/injection, schedule: Q07DX005 (ip), vehicle: Klucel (hydroxypropylcellulose) (HPC)) is 46 % of control. Also, the T/C was 62 % of control (endpoint: median tumor weight (est.), dose: 200.0 mg/kg/injection, schedule: Q07DX004 (ip), vehicle: saline); 26 % of control (endpoint: median tumor weight (est.), dose: 200.0 mg/kg/injection, schedule: Q07DX005 (ip), vehicle: Klucel (hydroxypropylcellulose) (HPC)); 13 % of control (endpoint: median tumor weight (est.), dose: 400.0 mg/kg/injection, schedule: Q07DX004 (ip), vehicle: saline); 16 % of control (endpoint: median tumor weight (est.), dose: 400.0 mg/kg/injection, schedule: Q07DX005 (ip), vehicle: Klucel (hydroxypropylcellulose) (HPC)).
In the case of `C1CN(P2(N3CC3)=NP(N3CC3)(N3CC3)=NP(N3CC3)(N3CC3)=N2)CCO1` (centres undefined), the T/C by setting is: (endpoint: median tumor weight (est.), dose: 6.25 mg/kg/injection, schedule: Q07DX005 (ip), vehicle: saline) 39 % of control; under setting [4], 44 % of control; under setting [6], 6 % of control.
As to `O=C1c2ccccc2C(=O)c2c(NCCNCCO)ccc(O)c21`, the T/C was 91 % of control (endpoint: median tumor weight change, dose: 25.0 mg/kg/injection, schedule: Q01DX001 (ip), vehicle: saline with Tween-80); 44 % of control under setting [1]; 41 % of control under setting [2]; 33 % of control under setting [3].
As for `COC1C(C)OC(OC2CC(C)(O)Cc3cc4c(c(O)c32)C(=O)c2c(O)cc3c(c2C4=O)OC2OC3(C)C(O)C(N(C)C)C2O)C(OC)C1(C)OC` (centres undefined), the T/C reads like this: (endpoint: median tumor weight (est.), dose: 2.5 mg/kg/injection, schedule: Q07DX005 (ip), vehicle: other) 161 % of control; (endpoint: median tumor weight (est.), dose: 5.0 mg/kg/injection, schedule: Q07DX005 (ip), vehicle: other) 94 % of control; (endpoint: median tumor weight (est.), dose: 10.0 mg/kg/injection, schedule: Q07DX005 (ip), vehicle: other) 57 % of control.
